Measured values from US4340595A, “Aminopropanol derivatives of 6-hydroxy-2,3,4,5-tetrahydro-1H-1-benzazepin-2-one and pharmaceutical formulations containing the said compounds” (BASF Aktiengesellschaft, priority 1978, dated 1982).
Counter-ions that a name gives are not always drawn. Like-named read-outs stand apart in the source and are kept apart here.

How the values were obtained:
[1] = system: isoproterenol-induced tachycardia; assay: β-sympatholytic action in cats: inhibition of isoproterenol-induced tachycardia; format: in vivo, cat (male and female, mongrels); details: for ED (50-60%): Felis catus, hexobarbital narcosis; for ED (50-60%) / factor by which the dose required for 50-60% inhibition is lower than the corresponding dose of propranolol, intraduodenal / % inhibition of isoproterenol-induced tachycardia, intraduodenal administration / factor by which the dose required is lowered compared with propranolol, intravenous / % inhibition of isoproterenol-induced tachycardia, intravenous administration: cats; for factor by which the dose required for 50-60% inhibition is lower than the corresponding dose of propranolol, intraduodenal: enteral (intraduodenal) administration; for factor by which the dose required for 50-60% inhibition is lower than the corresponding dose of propranolol, intraduodenal / factor by which the dose required is lowered compared with propranolol, intravenous: vs propranolol; for % inhibition of isoproterenol-induced tachycardia, intraduodenal administration: at the mg/kg dose of the same line (E3); for factor by which the dose required is lowered compared with propranolol, intravenous: intravenous administration; for % inhibition of isoproterenol-induced tachycardia, intravenous administration: at the mg/kg dose of the same line (E1)
Description: (§1) The β-sympatholytic action was tested on cats and dogs. The comparative compound used was the conventional β-sympatholytic agent propranolol. The isoproterenol-induced tachycardia model was used for the test.
Isoproterenol (1 μg/kg, administered intravenously) produces increases in heart rate averaging 61±2.4 beats/min. in cats (male and female, mongrels, weighing 1.7 to 4.0 kg) narcotized with hexobarbital (200 mg/kg administered intramuscularly). β-Sympatholytic agents inhibit this tachycardia. Isoproterenol was injected before, and 10 minutes after, the intravenous administration, or 30 minutes after the intraduodenal administration, of the test substances. The doses which inhibit the isoproterenol-induced tachycardia by 50-60% were determined.

[2] = system: isoproterenol-induced tachycardia; assay: β-sympatholytic action in conscious dogs: inhibition of isoproterenol-induced tachycardia; format: in vivo, dog; details: for ED50: Canis lupus familiaris, 10 min, read-out: ED 50% (dose which inhibits the isoproterenol-induced tachycardia by 50%)
Description: as §1
Isoproterenol was administered before and 10 minutes after the intravenous administration of the test substances.

[3] = acute toxicity, intraperitoneal administration to mice; set-up: species or system mouse (NMRI, female); details: mouse, in vivo, ip, Probit analysis
[4] = 10 min, intravenous, isoproterenol 1 μg/kg i.v. 10 minutes after test substance, read-out: dose inhibiting isoproterenol-induced tachycardia by 50-60%, intravenous administration
[5] = 0.5 h, intraduodenal, isoproterenol 1 μg/kg i.v. 30 minutes after test substance, read-out: dose inhibiting isoproterenol-induced tachycardia by 50-60%, intraduodenal administration

Row | Structure (SMILES) | ED (50-60%) [1, 4] [mg/kg] | ED (50-60%) [1, 5] [mg/kg] | factor by which the dose required for 50-60% inhibition is lower than the corresponding dose of propranolol, intraduodenal [1] | % inhibition of isoproterenol-induced tachycardia, intraduodenal administration ([1]; intraduodenal) [%] | factor by which the dose required is lowered compared with propranolol, intravenous [1] | % inhibition of isoproterenol-induced tachycardia, intravenous administration ([1]; intravenous) [%] | ED50 ([2]; conscious dogs, intravenous, isoproterenol 1 μg/kg i.v.) [mg/kg] | times as active as propranolol (ED 50%) ([2]; conscious dogs, intravenous, vs propranolol) [times] | LD50 at 24 h [3] [mg/kg] | increase in heart rate produced by isoproterenol ([1]; cats narcotized with hexobarbital, 1 μg/kg intravenously) [beats/min.] | increase in heart rate caused by isoproterenol ([2]; conscious dogs, 1 μg/kg intravenously) | ED50 ([2]; iv) [mg/kg]
1 | CC(C)NCC(O)COc1cccc2c1CCCC(=O)N2 (centres unmarked) [Example 1, 6-(2-hydroxy-3-isopropylaminopropoxy)-2,3,4,5-tetrahydro-1H-1-benzazepin-2-one] | 0.215 | 0.464 | 2 | 56 | 2 | 59 |  |  |  |  |  | 
2 | CC(C)(C)NCC(O)COc1cccc2c1CCCC(=O)N2 (centres unmarked) [Example 2, 6-(2-hydroxy-3-tert.-butylaminopropoxy)-2,3,4,5-tetrahydro-1H-1-benzazepin-2-one hydrochloride] | 0.0215 | 0.215 | 4.7 | 52 | 4.7 | 57 | 0.0043 | 24 | 237 |  |  | 
3 | CC(C)NCC(O)c1ccc(O)c(O)c1 (centres unmarked) [Isoproterenol, reference compound] |  |  |  |  |  |  |  |  |  | 61±2.4 | about 100 beats/min. | 
4 | CC(C)NCC(O)COc1cccc2ccccc12 (centres unmarked) [Propranolol, reference compound] |  |  |  | 57 |  | 52 |  |  |  |  |  | 0.1
